According to article PMC11783601, “Analogue-Sensitive Inhibition of Histone Demethylases Uncovers Member-Specific Function in Ribosomal Protein Synthesis” (Journal of the American Chemical Society, 2025):

Test system: nascent protein synthesis in HEK293T cells
Test: BONCAT: confocal imaging of TAMRA alkyne ligated nascent proteins in fixed cells
Assay type: cell-based, human
Procedure: To visualize the nascent proteins in intact cells, we performed click ligation on fixed cells with TAMRA alkyne, followed by confocal imaging. Treatment with AHA led to a robust fluorescence signal primarily in the cytoplasm compared to untreated cells indicating cytoplasmic protein synthesis (Figure 5D,E). […]
and 6 ug of Thermo Turbofect (FERR0531). KDM4A siRNA was transfected into cells using 10nM siRNA (Thermo 4392420) with 1:2 ug amount of Thermo Turbofect (FERR0531). Cells were washed 4 hours later and fresh DMEM was applied. The next day, the cells were treated with inhibitor (L-leucine NOG) and grown for 24 hours. […] The lysate was quantified with Bradford dye and 40 ug of lysate was incubated with 1 mM Tris[(1-benzyl-1H-1,2,3-triazol-4-yl)methyl]amine (TBTA […]
For analysis of AHA incorporation measured by fixed cell imaging, HEK293-T cells (ATCC CRL-1573) were grown in a 24 well plate (Corning) on poly-D-lysine (Gibco A3890401) treated glass coverslips (ThermoScientific 12-545-81P) overnight and transfected the next day with 500 ng KDM4A WT/F185A or Empty Vector (EV) equivalent using 1:2 ug of Thermo Turbofect (FERR0531). […]
(Sigma B2883-25MG) for 30 seconds, washed with PBS and finally adhered to a slide with gelvatol. […] Images were analyzed on ImageJ open-source software and NIS elements software. […]

Compound | TAMRA signal of nascent proteins (confocal imaging) (fixed HEK293T cells overexpressing F185A, to the level of cells expressing control vector) | TAMRA signal of nascent proteins (confocal imaging) (fixed HEK293T cells, endogenous KDM4A, compared with KDM4A silencing)
CCCCCCCCOC(=O)C(=O)NC(CC(C)C)C(=O)O [6A, L-Leu octyl-ester NOG] | subsequently inhibited | –
CCCCCCCCOC(=O)c1ccc(O)c2ncccc12 [n-octyl IOX1] | – | phenocopied
